Measurements: patent US5674979A, “Agent for inhibiting symmetrical proteins, in particular enzymes” (priority 1989, dated 1997)
Where two headings read alike, the source gives them in different places. Residues, ends and D or L forms follow the SMILES beside them. *: point of attachment. ClAc = O=C(CCl)*

Experiments:
HIV-1 [1] = test system: HIV-1
Protocol: (§1) Infectivity tests were carried out as follows: an HIV-1 suspension containing 10^2 infectious units was absorbed on to 5×10^6 H9 cells in a volume of 1 ml for 2 hours at 4° C. After this time, 9 ml of tissue culture medium with the required inhibitor concentration was added. The medium was exchanged with fresh medium plus inhibitor daily. Two control cultures were also prepared, one without inhibitor to determine the normal virus replication rate, the other containing inhibitor but no virus, to determine whether the substances were cytotoxic for H9 cells. […] The amount of virus antigen produced by the infected cells was measured daily using Elisa for eight days, indicating the amount of HIV-1 antigen in the tissue culture medium. After this, the cells were pelleted, washed in medium without inhibitor, and further incubated in inhibitor-less medium. The antigen production was measured on days 9 and 12 (ie 1 and 3 days after removal of the inhibitor). Virus production was also measured on days 7, 8, 9, and 12 by determining the amount of reverse transcriptase in the supernatant of the cell medium.

H9 cells = experiment: Cytotoxicity for H9 cells, trypan blue colouration; type: cell-based; details: culture with inhibitor but no virus, 0.1 μM to 1000 μM
Protocol: as §1

HIV-1 [2] = details: H9 cells
Protocol: Compounds (a), (b), (c), (d) were tested in the molarity range from 0.1 μM to 1000 μM. Infectivity tests were carried out as follows: an HIV-1 suspension containing 10^2 infectious units was absorbed on to 5×10^6 H9 cells in a volume of 1 ml for 2 hours at 4° C. After this time, 9 ml of tissue culture medium with the required inhibitor concentration was added. The medium was exchanged with fresh medium plus inhibitor daily. Two control cultures were also prepared, one without inhibitor to determine the normal virus replication rate, the other containing inhibitor but no virus, to determine whether the substances were cytotoxic for H9 cells. […] The amount of virus antigen produced by the infected cells was measured daily using Elisa for eight days, indicating the amount of HIV-1 antigen in the tissue culture medium. After this, the cells were pelleted, washed in medium without inhibitor, and further incubated in inhibitor-less medium. The antigen production was measured on days 9 and 12 (ie 1 and […] after removal of the inhibitor). Virus production was also measured on days 7, 8, 9, and 12 by determining the amount of reverse transcriptase in the supernatant of the cell medium.

[3] = 0,1 μM, day 9 post infection, no inhibitor (after removal)
[4] = 0,1 μM, day 12 post infection, no inhibitor (after removal)
[5] = 1 μM, day 9 post infection, no inhibitor (after removal)
[6] = 1 μM, day 12 post infection, no inhibitor (after removal)
[7] = 10 μM, day 9 post infection, no inhibitor (after removal)
[8] = 10 μM, day 12 post infection, no inhibitor (after removal)
[9] = 100 μM, day 9 post infection, no inhibitor (after removal)
[10] = 100 μM, day 12 post infection, no inhibitor (after removal)
[11] = 1000 μM, day 9 post infection, no inhibitor (after removal)
[12] = 1000 μM, day 12 post infection, no inhibitor (after removal)

CC[C@H](C)[C@H](NC(=O)[C@@H]1CCCN1C(=O)[C@H](Cc1ccccc1)NC(=O)[C@H](C)NC(=O)CNC(=O)CCl)C(=O)N[C@@H](C)C(=O)O [C, Cl--CH2 --CO-Gly-Ala-Phe-Pro-Ile-Ala-OH] (ClAc-GAFPIA-OH)
Reverse Transkriptase Determination (HIV-1 [1]; 0,1 μM, day 7 post infection): 5561 epm/ml
Reverse Transkriptase Determination (HIV-1 [1]; 0,1 μM, day 8 post infection): 2314 epm/ml
Reverse Transkriptase Determination (HIV-1 [1]; [3]): 7477 epm/ml
Reverse Transkriptase Determination (HIV-1 [1]; [4]): 113340 epm/ml
Reverse Transkriptase Determination (HIV-1 [1]; 1 μM, day 7 post infection): 4575 epm/ml
Reverse Transkriptase Determination (HIV-1 [1]; 1 μM, day 8 post infection): 3198 epm/ml
Reverse Transkriptase Determination (HIV-1 [1]; [5]): 4186 epm/ml
Reverse Transkriptase Determination (HIV-1 [1]; [6]): 164240 epm/ml
Reverse Transkriptase Determination (HIV-1 [1]; 10 μM, day 7 post infection): 5358 epm/ml
Reverse Transkriptase Determination (HIV-1 [1]; 10 μM, day 8 post infection): 4398 epm/ml
Reverse Transkriptase Determination (HIV-1 [1]; [7]): 8823 epm/ml
Reverse Transkriptase Determination (HIV-1 [1]; [8]): 158800 epm/ml
Reverse Transkriptase Determination (HIV-1 [1]; 100 μM, day 7 post infection): 3838 epm/ml
Reverse Transkriptase Determination (HIV-1 [1]; 100 μM, day 8 post infection): 6370 epm/ml
Reverse Transkriptase Determination (HIV-1 [1]; [9]): 8860 epm/ml
Reverse Transkriptase Determination (HIV-1 [1]; [10]): 96780 epm/ml
Reverse Transkriptase Determination (HIV-1 [1]; 1000 μM, day 7 post infection): 7646 epm/ml
Reverse Transkriptase Determination (HIV-1 [1]; 1000 μM, day 8 post infection): 4308 epm/ml
Reverse Transkriptase Determination (HIV-1 [1]; [11]): 5343 epm/ml
Reverse Transkriptase Determination (HIV-1 [1]; [12]): 107640 epm/ml
cytotoxic effect for H9 cells, colouration with trypan blue (H9 cells): no cytotoxic effect
HIV-1 antigen production as measured in antigen capture ELISA (HIV-1 [2]; 0,1 μM, day 1 post infection): 0,062 o. D.
HIV-1 antigen production as measured in antigen capture ELISA (HIV-1 [2]; 0,1 μM, day 2 post infection): 0,069 o. D.
HIV-1 antigen production as measured in antigen capture ELISA (HIV-1 [2]; 0,1 μM, day 3 post infection): 0,055 o. D.
HIV-1 antigen production as measured in antigen capture ELISA (HIV-1 [2]; 0,1 μM, day 4 post infection): 0,052 o. D.
HIV-1 antigen production as measured in antigen capture ELISA (HIV-1 [2]; 0,1 μM, day 5 post infection): 0,054 o. D.
HIV-1 antigen production as measured in antigen capture ELISA (HIV-1 [2]; 0,1 μM, day 6 post infection): 0,105 o. D.
HIV-1 antigen production as measured in antigen capture ELISA (HIV-1 [2]; 0,1 μM, day 7 post infection): 0,276 o. D.
HIV-1 antigen production as measured in antigen capture ELISA (HIV-1 [2]; 0,1 μM, day 8 post infection): 0,336 o. D.
HIV-1 antigen production as measured in antigen capture ELISA (HIV-1 [2]; [3]): 0,588 o. D.
HIV-1 antigen production as measured in antigen capture ELISA (HIV-1 [2]; [4]): 1,010 o. D.
HIV-1 antigen production as measured in antigen capture ELISA (HIV-1 [2]; 1 μM, day 1 post infection): 0,061 o. D.
HIV-1 antigen production as measured in antigen capture ELISA (HIV-1 [2]; 1 μM, day 2 post infection): 0,054 o. D.
HIV-1 antigen production as measured in antigen capture ELISA (HIV-1 [2]; 1 μM, day 3 post infection): 0,060 o. D.
HIV-1 antigen production as measured in antigen capture ELISA (HIV-1 [2]; 1 μM, day 4 post infection): 0,050 o. D.
HIV-1 antigen production as measured in antigen capture ELISA (HIV-1 [2]; 1 μM, day 5 post infection): 0,051 o. D.
HIV-1 antigen production as measured in antigen capture ELISA (HIV-1 [2]; 1 μM, day 6 post infection): 0,133 o. D.
HIV-1 antigen production as measured in antigen capture ELISA (HIV-1 [2]; 1 μM, day 7 post infection): 0,267 o. D.
HIV-1 antigen production as measured in antigen capture ELISA (HIV-1 [2]; 1 μM, day 8 post infection): 0,239 o. D.
HIV-1 antigen production as measured in antigen capture ELISA (HIV-1 [2]; [5]): 0,808 o. D.
HIV-1 antigen production as measured in antigen capture ELISA (HIV-1 [2]; [6]): 1,042 o. D.
HIV-1 antigen production as measured in antigen capture ELISA (HIV-1 [2]; 10 μM, day 1 post infection): 0,069 o. D.
HIV-1 antigen production as measured in antigen capture ELISA (HIV-1 [2]; 10 μM, day 2 post infection): 0,048 o. D.
HIV-1 antigen production as measured in antigen capture ELISA (HIV-1 [2]; 10 μM, day 3 post infection): 0,066 o. D.
HIV-1 antigen production as measured in antigen capture ELISA (HIV-1 [2]; 10 μM, day 4 post infection): 0,064 o. D.
HIV-1 antigen production as measured in antigen capture ELISA (HIV-1 [2]; 10 μM, day 5 post infection): 0,049 o. D.
HIV-1 antigen production as measured in antigen capture ELISA (HIV-1 [2]; 10 μM, day 6 post infection): 0,099 o. D.
HIV-1 antigen production as measured in antigen capture ELISA (HIV-1 [2]; 10 μM, day 7 post infection): 0,228 o. D.
HIV-1 antigen production as measured in antigen capture ELISA (HIV-1 [2]; 10 μM, day 8 post infection): 0,292 o. D.
HIV-1 antigen production as measured in antigen capture ELISA (HIV-1 [2]; [7]): 0,643 o. D.
HIV-1 antigen production as measured in antigen capture ELISA (HIV-1 [2]; [8]): 1,040 o. D.
HIV-1 antigen production as measured in antigen capture ELISA (HIV-1 [2]; 100 μM, day 1 post infection): 0,064 o. D.
HIV-1 antigen production as measured in antigen capture ELISA (HIV-1 [2]; 100 μM, day 2 post infection): 0,056 o. D.
HIV-1 antigen production as measured in antigen capture ELISA (HIV-1 [2]; 100 μM, day 3 post infection): 0,062 o. D.
HIV-1 antigen production as measured in antigen capture ELISA (HIV-1 [2]; 100 μM, day 4 post infection): 0,053 o. D.
HIV-1 antigen production as measured in antigen capture ELISA (HIV-1 [2]; 100 μM, day 5 post infection): 0,061 o. D.
HIV-1 antigen production as measured in antigen capture ELISA (HIV-1 [2]; 100 μM, day 6 post infection): 0,100 o. D.
HIV-1 antigen production as measured in antigen capture ELISA (HIV-1 [2]; 100 μM, day 7 post infection): 0,265 o. D.
HIV-1 antigen production as measured in antigen capture ELISA (HIV-1 [2]; 100 μM, day 8 post infection): 0,296 o. D.
HIV-1 antigen production as measured in antigen capture ELISA (HIV-1 [2]; [9]): 0,787 o. D.
HIV-1 antigen production as measured in antigen capture ELISA (HIV-1 [2]; [10]): 0,940 o. D.
HIV-1 antigen production as measured in antigen capture ELISA (HIV-1 [2]; 1000 μM, day 1 post infection): 0,071 o. D.
HIV-1 antigen production as measured in antigen capture ELISA (HIV-1 [2]; 1000 μM, day 2 post infection): 0,053 o. D.
HIV-1 antigen production as measured in antigen capture ELISA (HIV-1 [2]; 1000 μM, day 3 post infection): 0,061 o. D.
HIV-1 antigen production as measured in antigen capture ELISA (HIV-1 [2]; 1000 μM, day 4 post infection): 0,057 o. D.
HIV-1 antigen production as measured in antigen capture ELISA (HIV-1 [2]; 1000 μM, day 5 post infection): 0,123 o. D.
HIV-1 antigen production as measured in antigen capture ELISA (HIV-1 [2]; 1000 μM, day 6 post infection): 0,096 o. D.
HIV-1 antigen production as measured in antigen capture ELISA (HIV-1 [2]; 1000 μM, day 7 post infection): 0,415 o. D.
HIV-1 antigen production as measured in antigen capture ELISA (HIV-1 [2]; 1000 μM, day 8 post infection): 0,778 o. D.
HIV-1 antigen production as measured in antigen capture ELISA (HIV-1 [2]; [11]): 1,019 o. D.
HIV-1 antigen production as measured in antigen capture ELISA (HIV-1 [2]; [12]): 1,000 o. D.
